{"source": "paper PMC4013123", "about": "(PLoS ONE, 2014)", "key": {"[1]": {"biological_target": "D10-MPH (Ochrobactrum sp. M231, UniProt B2Z3X1)", "sequence (B2Z3X1 entry or part of it)": "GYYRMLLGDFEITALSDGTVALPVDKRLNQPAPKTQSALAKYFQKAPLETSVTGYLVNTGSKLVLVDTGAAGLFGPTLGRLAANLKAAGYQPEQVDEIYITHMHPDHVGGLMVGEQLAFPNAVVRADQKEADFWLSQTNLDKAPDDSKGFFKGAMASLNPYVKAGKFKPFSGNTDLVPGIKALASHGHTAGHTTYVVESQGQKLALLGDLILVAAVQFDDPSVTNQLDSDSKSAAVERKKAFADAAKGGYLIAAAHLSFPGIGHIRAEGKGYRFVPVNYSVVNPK", "text": "steady-state kinetics of purified enzyme (standard assay by reference) on D10-MPH"}, "[2]": {"biological_target": "WT MPH (methyl parathion hydrolase) (Ochrobactrum sp. M231, UniProt B2Z3X1)", "sequence (B2Z3X1 entry or part of it)": "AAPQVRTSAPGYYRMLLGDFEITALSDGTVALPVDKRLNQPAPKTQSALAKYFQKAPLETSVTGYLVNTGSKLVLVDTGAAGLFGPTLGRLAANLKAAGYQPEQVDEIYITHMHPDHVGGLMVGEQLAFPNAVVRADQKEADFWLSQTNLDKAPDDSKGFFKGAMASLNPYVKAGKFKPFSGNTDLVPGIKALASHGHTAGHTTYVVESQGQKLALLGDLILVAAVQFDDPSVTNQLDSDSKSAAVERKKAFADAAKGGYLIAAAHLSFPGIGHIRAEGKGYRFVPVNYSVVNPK", "text": "steady-state kinetics of purified enzyme (standard assay by reference) on WT MPH (methyl parathion hydrolase)"}}}
{"smiles": "COP(=S)(OC)Oc1ccc([N+](=O)[O-])cc1", "note": "[methyl parathion]", "values": [{"measurement": "Km", "setting": "[1]", "result": "86.9 ± 4.01", "unit": "µM"}, {"measurement": "Km", "setting": "[2]", "result": "73.2 ± 4.7", "unit": "µM"}]}
